Source: patent EP4523686A1, “A SIGMA-1 RECEPTOR POSITIVE MODULATOR FOR ITS USE IN THE PREVENTION AND THE TREATMENT OF A PATHOLOGY” (priority 2023, dated 2025)

How the values were obtained:
[1] = test system: Dizocilpine-induced learning impairments in mice; test: Spontaneous alternation in the Y-maze, Dizocilpine-induced learning impairments; type: in vivo; settings: at the highest dose tested (range 0.1-3 mg/kg IP)
Description: The Y-maze is made of grey polyvinylchloride. Each arm is 40 cm long, 13 cm high, 3 cm wide at the bottom, 10 cm wide at the top, and converging at an equal angle. Each mouse was placed at the end of one arm and allowed to move freely through the maze during an 8 min session. The series of arm entries, including possible returns into the same arm, were checked visually. An alternation is defined as entries into all three arms on consecutive occasions. The number of maximum alternations is therefore the total number of arm entries minus two and the percentage of alternation was calculated as (actual alternations / maximum alternations) × 100 (Maurice et al., 1996; Meunier et al., 2006, 2013). Exclusion criteria are locomotion < 10 or percentage of alternation < 25% or > 90%. Animals showing these readouts are excluded from the calculations. Attrition is routinely < 5% in this test.
Due to the chaperone nature of SIG-1R, a SIG-1R positive modulator behaves as an agonist in vivo, particularly on learning and memory abilities in mice (Maurice et al., 2019; Vavers et al., 2019). Convolamine was tested on Dizocilpine-induced learning impairments, a well-characterized SIG-1R-mediated response in mice (Maurice et al., 1994, 2001). The NMDA receptor noncompetitive antagonist Dizocilpine (0.15 mg/kg IP) prevented spontaneous alternation behavior (Fig. 4A) and increased mobility (Fig. 4B) in the Y-maze. […] Co-treatment with the SIG-1R antagonist NE-100 at 1 mg/kg IP, blocked the attenuating effect of Convolamine (Fig. 4C), thus confirming the SIG-1R-mediated effect.

[2] = test system: Dizocilpine-induced learning impairments in mice; test: Step-through passive avoidance, Dizocilpine-induced learning impairments; type: in vivo
Source text: The apparatus is a two-compartments (15 × 20 × 15 cm high) box with one illuminated with white polyvinylchloride walls and the other darkened with black polyvinylchloride walls and a grid floor. A guillotine door separates each compartment. A 60 W lamp positioned 40 cm above the apparatus lights up the white compartment during the experiment. Scrambled foot shocks (0.3 mA for 3 s) could be delivered to the grid floor using a shock generator scrambler (Lafayette Instruments, Lafayette, USA). The guillotine door was initially closed during the training session. Each mouse was placed into the white compartment. After 5 s, the door was raised. When the mouse entered the darkened compartment and placed all its paws on the grid floor, the door is closed and the foot shocks delivered for 3 s. The step-through latency (STL-Tg), that is, the latency spent to enter the darkened compartment, and the number of vocalizations were recorded. The retention test was carried out 24 h after training. Each mouse was placed again into the white compartment. After 5 s, the door was raised. The step-through latency (STL-R) was recorded up to 300 s (Meunier et al., 2006, 2013; Villard et al., 2009, 2011). An exclusion criteria was STL-Tg and STL-R < 10 s. Animals showing these readouts are excluded from the calculations. Attrition is routinely < 5% in this test.

[3] = test system: wfs1ab^KO zebrafish larvae; test: Visual motor response in zebrafish larvae (hyperlocomotor response); type: in vivo; settings: at 3 µM in fish water
Description: The visual motor response assay quantifies the locomotor activity of the zebrafish larvae to light intensity changes. The protocol was previously described (Crouzier et al., 2021a, 2021b, 2022). In brief, 5 dpf larvae were transfered in a 96-well plate (#7701-1651, Whatman) with 300 µl of fish water and placed in a Zebrabox® (ViewPoint, Lissieu, France). The locomotor behavior was monitored using an automated videotracking device equipped with an infra-red (IR) camera under IR light illumination (Zebralab®, Viewpoint). The light protocol was as follow: 30 min of acclimatization in the dark (0% light intensity), then 2 cycles of 10-min duration light ON and 10-min duration light OFF periods. The brightness changes were immediate (<< 1 s). The activity was measured in mm/s. For each larva, the mobility were calculated as mean (OFF-ON) values to account for inter- and intra-group variability in locomotor response.
A phenotypic test described by Crouzier et al. (2022) was performed. […] Compounds were added in the fish water of larvae at 4 dpf for 24 h, and screening parameters included: (1) the lack of toxicity (including grossly observable morphological alterations) after 24 h exposure; (2) the locomotor increase in wfs1ab^KO larvae, expressed as % of V-treated wfs1ab^KO response; (3) the eventual alteration of locomotion in wfs1ab^WT larvae, expressed as % of V-treated wfs1ab^WT response; and (4) the Protection index (PI) calculated as detailed in the Methods section.

SIG-1R/BiP = target: T1, SIG-1R/BiP (Homo sapiens, UniProt Q99720); test: SIG-1R/BiP dissociation assay in GFP-SIG-1R-overexpressing CHO cells; type: cell-based; settings: compound alone, at concentrations up to 30 µM
T1 construct: host or cells: CHO cells overexpressing GFP-SIG-1R
Description: CHO cells which overexpress GFP tagged-SIG-1R (gift from Tsung-Ping Su, NIDA/NIH, Baltimore, MD, USA) were maintained in DMEM/Glutamax culture medium supplemented with 10% heat inactivated FBS. GFP-SIG-1Roe CHO cells were plated in 6-well plates and treated with test compounds dissolved in culture medium for 30 min at 37°C. The reaction was terminated by removing the culture medium containing the test drug and replacing it with 1 ml of PBS. GFP-SIG-1R-oe CHO cells were harvested and suspended in PBS (pH 7.4) followed by cross-linking with 50 µg/ml of dithiobis succinimidyl propionate (ThermoFisher, France). The reaction was stopped by adding Tris/HCl 50 mM (pH 8.8). After a 15 min incubation on ice, cells were lysed with 50 mM Tris (pH 7.4), 150 mM NaCl, 1% Triton X/100, 0.3% sodium deoxycholate, 0.1% SDS buffer containing a protease inhibitor cocktail (Sigma-Aldrich, France). After centrifugation at 16,000 g for 1 min, the supernatant was incubated with Chromotek GFP-trap agarose (Proteintech, United Kingdom) overnight at 4°C.

T1 sequence (Q99720 whole entry): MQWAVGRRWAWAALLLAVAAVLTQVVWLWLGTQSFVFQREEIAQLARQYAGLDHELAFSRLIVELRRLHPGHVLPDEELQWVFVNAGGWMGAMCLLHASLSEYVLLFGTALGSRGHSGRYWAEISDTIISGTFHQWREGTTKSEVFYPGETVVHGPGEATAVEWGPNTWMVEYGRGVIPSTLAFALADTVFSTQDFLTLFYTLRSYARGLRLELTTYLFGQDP

Row | Compound | Dizocilpine-induced alternation deficit (in words) [1] | Dizocilpine-induced decrease in step-through latency (in words) ([2]; at 0.3 mg/kg IP) | Dizocilpine-induced increase in escape latency (in words) ([2]; at the highest doses tested (range 0.1-3 mg/kg IP)) | hyperlocomotor response of wfs1ab^KO zebrafish (in words) [3] | dissociation of SIG-1R from BiP (in words) (SIG-1R/BiP)
1 | COc1ccc(C(=O)OC2CC3CCC(C2)N3)cc1OC (stereo not drawn) [Convolvine, reference compound] | significantly attenuated | attenuated, but in a non-significant manner | attenuated, but in a non-significant manner | failed to attenuate | 
2 | CCCN(CCC)CCc1ccc(OC)c(OCCc2ccccc2)c1 [NE-100, reference compound] |  |  |  | failed to affect | ineffective
